According to patent US10849918B2, “Composition for optic nerve protection” (TOHOKU TECHNO ARCH CO., LTD., priority 2015, dated 2020):

System: retinal ganglion cells
Assay: Test 2: optic nerve protection in optic nerve crush injury murine model, oral administration
Assay type: in vivo, mice
Details: summary statement; oral or intraocular administration, optic nerve crush injury model and NMDA model
Protocol: The nerve protection effect of each ingredient was verified by using a rodent glaucoma pathological model of an optic nerve crush injury murine model.
Test animal: male C57BL/6 strain mice, 9-12 weeks old, each approximately 25 g
The experiment was conducted according to the following method. The number of samples in each group was 8.
(2) To the mice in the experimental groups, each ingredient prepared as shown in Table 2 was orally administered at a dosage as shown in Table 2 once a day from one week before the optic nerve crush treatment; to the mice in the control groups, 100 μL of distilled water or phosphate-buffered saline (containing no Ca or Mg, pH: 7.4, hereinafter abbreviated as “PBS(−)”) was administered likewise.
(3) The optic nerve crush treatment on the mice was performed under anesthesia by administering ketamine (100 mg/kg) and xylazine (5 mg/kg). The optic nerve crush treatment was performed on only single eyes, and the fellow eyes were untreated. After the optic nerve crush treatment was completed, an antibacterial ophthalmic ointment was instilled to the eyes of the mice. […]
(7) The number of cells labeled with Fluoro-Gold was counted to obtain an average number at the 12 sites. […]

COc1ccc([C@@H]2CC(=O)c3c(O)cc(O[C@@H]4O[C@H](CO[C@@H]5O[C@@H](C)[C@H](O)[C@@H](O)[C@H]5O)[C@@H](O)[C@H](O)[C@H]4O)cc3O2)cc1O [hesperidin]
protection effect on the death of retinal ganglion cells: excellent protection effect on the death of retinal ganglion cells
